Data taken from ChEMBL document CHEMBL3132769, “Fragment growing to retain or alter the selectivity of anchored kinase hinge-binding fragments” (Medchemcomm, 2014).

Legend:
[1] = biological target: Serine/threonine-protein kinase PAK 2 (Homo sapiens) (UniProt Q13177); assay: Inhibition of human truncated PAK2 expressed in Escherichia coli cell assessed as substrate phosphorylation using fluorescence-labelled peptides as substrate at 0.2 uM after 90 mins by microfluidic peptide phosphorylation assay
[2] = biological target: Ribosomal protein S6 kinase alpha-1 (Homo sapiens) (UniProt Q15418); assay: Inhibition of human full length RSK1 expressed in baculovirus assessed as substrate phosphorylation using fluorescence-labelled peptides as substrate at 0.2 uM after 90 mins by microfluidic peptide phosphorylation assay
[3] = biological target: Mitogen-activated protein kinase kinase kinase kinase 4 (Homo sapiens) (UniProt O95819); assay: Inhibition of human HGK catalytic domain expressed in baculovirus assessed as substrate phosphorylation using fluorescence-labelled peptides as substrate at 0.2 uM after 90 mins by microfluidic peptide phosphorylation assay
[4] = biological target: Tyrosine-protein kinase Lck (Homo sapiens) (UniProt P06239); assay: Inhibition of human full length LCK expressed in baculovirus assessed as substrate phosphorylation using fluorescence-labelled peptides as substrate at 420 uM after 90 mins by microfluidic peptide phosphorylation assay
[5] = biological target: T1, Mitogen-activated protein kinase 13 (Homo sapiens) (UniProt O15264); assay: Inhibition of human full length p38 delta expressed in Escherichia coli cell assessed as substrate phosphorylation using fluorescence-labelled peptides as substrate at 420 uM after 90 mins by microfluidic peptide phosphorylation assay
T1 sequence (whole entry): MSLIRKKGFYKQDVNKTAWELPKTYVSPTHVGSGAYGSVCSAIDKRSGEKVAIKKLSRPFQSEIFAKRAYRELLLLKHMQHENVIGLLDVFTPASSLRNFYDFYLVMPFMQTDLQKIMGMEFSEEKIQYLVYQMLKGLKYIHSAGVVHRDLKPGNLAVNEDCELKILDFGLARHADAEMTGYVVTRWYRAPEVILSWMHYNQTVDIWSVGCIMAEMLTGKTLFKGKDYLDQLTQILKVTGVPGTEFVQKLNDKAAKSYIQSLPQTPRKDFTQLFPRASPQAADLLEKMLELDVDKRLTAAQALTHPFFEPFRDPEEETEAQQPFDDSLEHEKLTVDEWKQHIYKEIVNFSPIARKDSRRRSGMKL

[6] = biological target: T2, Serine/threonine-protein kinase Sgk3 (Homo sapiens) (UniProt Q96BR1); assay: Inhibition of human full length SGK3 expressed in baculovirus assessed as substrate phosphorylation using fluorescence-labelled peptides as substrate at 420 uM after 90 mins by microfluidic peptide phosphorylation assay
T2 sequence (whole entry): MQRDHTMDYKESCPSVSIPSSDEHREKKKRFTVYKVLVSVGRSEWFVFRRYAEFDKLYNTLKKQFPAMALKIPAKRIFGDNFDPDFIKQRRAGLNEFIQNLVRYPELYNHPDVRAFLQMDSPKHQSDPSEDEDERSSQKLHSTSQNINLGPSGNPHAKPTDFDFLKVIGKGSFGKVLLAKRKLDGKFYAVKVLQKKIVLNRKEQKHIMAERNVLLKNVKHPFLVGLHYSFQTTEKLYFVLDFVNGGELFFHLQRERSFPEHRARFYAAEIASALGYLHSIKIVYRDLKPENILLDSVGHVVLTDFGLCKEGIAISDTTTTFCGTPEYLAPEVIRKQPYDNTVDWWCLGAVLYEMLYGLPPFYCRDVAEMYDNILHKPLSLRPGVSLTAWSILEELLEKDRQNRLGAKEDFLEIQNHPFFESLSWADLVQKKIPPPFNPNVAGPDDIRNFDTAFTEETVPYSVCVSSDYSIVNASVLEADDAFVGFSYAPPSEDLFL

[7] = biological target: T3, Serine/threonine-protein kinase Sgk2 (Homo sapiens) (UniProt Q9HBY8); assay: Inhibition of human full length SGK2 expressed in baculovirus assessed as substrate phosphorylation using fluorescence-labelled peptides as substrate at 9 uM after 90 mins by microfluidic peptide phosphorylation assay
T3 sequence (whole entry): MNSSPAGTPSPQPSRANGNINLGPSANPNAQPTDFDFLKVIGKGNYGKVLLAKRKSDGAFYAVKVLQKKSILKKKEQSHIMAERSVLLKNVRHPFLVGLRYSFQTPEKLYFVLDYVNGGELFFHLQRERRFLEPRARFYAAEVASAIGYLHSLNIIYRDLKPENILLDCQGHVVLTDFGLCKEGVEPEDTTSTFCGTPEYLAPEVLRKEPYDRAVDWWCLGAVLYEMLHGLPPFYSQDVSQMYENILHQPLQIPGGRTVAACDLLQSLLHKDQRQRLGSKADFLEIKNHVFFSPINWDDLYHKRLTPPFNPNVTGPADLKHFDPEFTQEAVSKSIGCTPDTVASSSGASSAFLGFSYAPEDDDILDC

[8] = biological target: Ribosomal protein S6 kinase alpha-3 (Homo sapiens) (UniProt P51812); assay: Inhibition of human full length RSK2 expressed in baculovirus assessed as substrate phosphorylation using fluorescence-labelled peptides as substrate at 9 uM after 90 mins by microfluidic peptide phosphorylation assay
[9] = biological target: Serine/threonine-protein kinase pim-1 (Homo sapiens) (UniProt P11309); assay: Inhibition of human full length PIM1 expressed in baculovirus assessed as substrate phosphorylation using fluorescence-labelled peptides as substrate at 9 uM after 90 mins by microfluidic peptide phosphorylation assay
[10] = biological target: T2, Serine/threonine-protein kinase Sgk3 (Homo sapiens); assay: Inhibition of human full length SGK3 expressed in baculovirus assessed as substrate phosphorylation using fluorescence-labelled peptides as substrate at 1000 uM after 90 mins by microfluidic peptide phosphorylation assay
[11] = biological target: T4, Serine/threonine-protein kinase Sgk1 (Homo sapiens) (UniProt O00141); assay: Inhibition of human truncated SGK1 expressed in baculovirus assessed as substrate phosphorylation using fluorescence-labelled peptides as substrate at 2 uM after 90 mins by microfluidic peptide phosphorylation assay
T4 sequence (whole entry): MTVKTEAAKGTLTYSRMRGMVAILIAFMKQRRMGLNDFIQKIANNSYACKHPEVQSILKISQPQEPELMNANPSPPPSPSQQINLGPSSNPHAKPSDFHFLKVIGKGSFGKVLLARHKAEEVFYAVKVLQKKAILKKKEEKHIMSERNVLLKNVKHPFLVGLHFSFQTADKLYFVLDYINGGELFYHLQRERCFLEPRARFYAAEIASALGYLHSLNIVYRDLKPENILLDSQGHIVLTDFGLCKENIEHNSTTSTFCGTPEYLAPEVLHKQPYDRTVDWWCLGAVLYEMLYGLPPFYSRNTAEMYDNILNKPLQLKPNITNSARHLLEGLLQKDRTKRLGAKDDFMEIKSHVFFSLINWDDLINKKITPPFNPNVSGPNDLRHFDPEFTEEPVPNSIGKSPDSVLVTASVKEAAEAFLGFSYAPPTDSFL

[12] = biological target: Tyrosine-protein kinase BTK (Homo sapiens) (UniProt Q06187); assay: Inhibition of human full length BTK expressed in baculovirus assessed as substrate phosphorylation using fluorescence-labelled peptides as substrate at 2 uM after 90 mins by microfluidic peptide phosphorylation assay
[13] = biological target: Tyrosine-protein kinase Fyn (Homo sapiens) (UniProt P06241); assay: Inhibition of human full length FYN expressed in baculovirus assessed as substrate phosphorylation using fluorescence-labelled peptides as substrate at 8 uM after 90 mins by microfluidic peptide phosphorylation assay
Chain of Tyrosine-protein kinase Fyn (Homo sapiens) (P06241 2-537 limits assumed): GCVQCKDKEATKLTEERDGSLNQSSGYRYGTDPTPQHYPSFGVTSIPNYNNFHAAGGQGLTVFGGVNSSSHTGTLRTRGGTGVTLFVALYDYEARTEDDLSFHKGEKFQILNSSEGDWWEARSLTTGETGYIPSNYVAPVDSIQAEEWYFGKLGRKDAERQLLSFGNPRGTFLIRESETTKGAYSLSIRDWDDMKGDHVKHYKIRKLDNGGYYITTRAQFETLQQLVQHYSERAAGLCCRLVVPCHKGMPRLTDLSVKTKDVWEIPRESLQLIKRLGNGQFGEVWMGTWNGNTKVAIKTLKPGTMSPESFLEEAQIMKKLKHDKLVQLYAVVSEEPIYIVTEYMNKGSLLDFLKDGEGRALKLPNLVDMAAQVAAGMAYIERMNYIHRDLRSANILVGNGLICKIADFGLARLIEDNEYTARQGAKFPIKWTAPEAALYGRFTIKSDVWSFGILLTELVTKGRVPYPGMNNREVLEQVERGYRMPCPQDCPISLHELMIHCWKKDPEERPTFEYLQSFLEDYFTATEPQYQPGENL

Chain of Tyrosine-protein kinase BTK (Homo sapiens) (Q06187 whole entry): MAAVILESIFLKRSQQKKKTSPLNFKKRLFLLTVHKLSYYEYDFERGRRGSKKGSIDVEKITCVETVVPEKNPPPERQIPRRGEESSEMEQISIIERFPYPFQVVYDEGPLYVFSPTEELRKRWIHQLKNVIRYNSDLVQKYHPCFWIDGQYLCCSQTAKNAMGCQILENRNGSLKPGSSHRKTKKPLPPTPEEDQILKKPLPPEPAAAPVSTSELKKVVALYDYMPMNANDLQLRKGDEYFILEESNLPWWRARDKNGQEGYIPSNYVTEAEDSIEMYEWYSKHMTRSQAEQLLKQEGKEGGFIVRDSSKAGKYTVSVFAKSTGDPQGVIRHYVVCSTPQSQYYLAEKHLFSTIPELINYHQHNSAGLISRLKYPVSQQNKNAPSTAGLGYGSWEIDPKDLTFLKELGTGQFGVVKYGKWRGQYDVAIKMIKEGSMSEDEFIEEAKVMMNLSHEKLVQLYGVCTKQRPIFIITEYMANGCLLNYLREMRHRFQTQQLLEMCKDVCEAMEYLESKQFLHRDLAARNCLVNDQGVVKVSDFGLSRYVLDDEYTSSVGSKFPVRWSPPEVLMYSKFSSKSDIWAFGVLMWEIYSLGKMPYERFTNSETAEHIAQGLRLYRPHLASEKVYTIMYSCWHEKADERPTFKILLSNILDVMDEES
Chain of Ribosomal protein S6 kinase alpha-3 (Homo sapiens) (P51812 whole entry): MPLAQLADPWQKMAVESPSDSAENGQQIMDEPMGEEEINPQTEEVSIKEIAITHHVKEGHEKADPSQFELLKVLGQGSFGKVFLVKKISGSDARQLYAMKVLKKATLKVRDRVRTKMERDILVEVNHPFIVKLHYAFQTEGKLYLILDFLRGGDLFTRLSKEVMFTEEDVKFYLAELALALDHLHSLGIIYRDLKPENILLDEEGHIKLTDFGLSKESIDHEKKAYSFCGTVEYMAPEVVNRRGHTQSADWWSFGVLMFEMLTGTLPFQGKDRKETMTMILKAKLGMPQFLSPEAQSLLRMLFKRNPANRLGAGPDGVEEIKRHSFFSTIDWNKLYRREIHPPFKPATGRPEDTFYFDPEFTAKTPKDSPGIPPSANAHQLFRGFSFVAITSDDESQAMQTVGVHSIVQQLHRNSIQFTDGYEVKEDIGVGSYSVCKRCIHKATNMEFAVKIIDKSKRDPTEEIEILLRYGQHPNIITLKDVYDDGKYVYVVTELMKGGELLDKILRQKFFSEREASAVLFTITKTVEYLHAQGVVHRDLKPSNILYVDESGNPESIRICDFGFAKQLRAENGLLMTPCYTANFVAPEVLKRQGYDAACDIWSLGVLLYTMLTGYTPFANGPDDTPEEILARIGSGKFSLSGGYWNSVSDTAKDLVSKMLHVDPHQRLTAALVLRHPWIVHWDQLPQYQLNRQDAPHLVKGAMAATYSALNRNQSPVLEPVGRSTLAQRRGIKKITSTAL
Chain of Tyrosine-protein kinase Lck (Homo sapiens) (P06239 2-509 limits assumed): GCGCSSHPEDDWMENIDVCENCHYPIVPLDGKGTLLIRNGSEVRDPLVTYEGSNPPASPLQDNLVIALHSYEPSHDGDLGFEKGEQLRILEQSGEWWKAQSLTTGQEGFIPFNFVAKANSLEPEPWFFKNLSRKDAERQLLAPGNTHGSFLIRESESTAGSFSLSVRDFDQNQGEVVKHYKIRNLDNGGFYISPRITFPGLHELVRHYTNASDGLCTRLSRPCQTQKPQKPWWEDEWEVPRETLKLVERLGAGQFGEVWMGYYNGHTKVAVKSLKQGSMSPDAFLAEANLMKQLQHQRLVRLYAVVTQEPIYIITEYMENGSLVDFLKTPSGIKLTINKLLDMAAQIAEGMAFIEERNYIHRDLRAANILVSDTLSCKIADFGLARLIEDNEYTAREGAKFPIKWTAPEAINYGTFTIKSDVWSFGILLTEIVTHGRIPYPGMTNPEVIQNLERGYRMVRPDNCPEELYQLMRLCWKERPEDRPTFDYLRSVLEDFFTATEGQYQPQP
Chain of Serine/threonine-protein kinase pim-1 (Homo sapiens) (P11309 whole entry, looked up): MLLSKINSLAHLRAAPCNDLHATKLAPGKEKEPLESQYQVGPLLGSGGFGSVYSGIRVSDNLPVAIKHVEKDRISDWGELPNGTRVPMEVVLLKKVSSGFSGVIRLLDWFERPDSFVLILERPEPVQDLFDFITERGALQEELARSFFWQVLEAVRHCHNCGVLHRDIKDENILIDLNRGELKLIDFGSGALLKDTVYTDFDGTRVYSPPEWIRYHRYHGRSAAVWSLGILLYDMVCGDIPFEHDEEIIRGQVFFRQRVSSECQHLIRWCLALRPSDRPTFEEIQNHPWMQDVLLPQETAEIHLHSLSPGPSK
Chain of Ribosomal protein S6 kinase alpha-1 (Homo sapiens) (Q15418 whole entry, the tested form may be a part): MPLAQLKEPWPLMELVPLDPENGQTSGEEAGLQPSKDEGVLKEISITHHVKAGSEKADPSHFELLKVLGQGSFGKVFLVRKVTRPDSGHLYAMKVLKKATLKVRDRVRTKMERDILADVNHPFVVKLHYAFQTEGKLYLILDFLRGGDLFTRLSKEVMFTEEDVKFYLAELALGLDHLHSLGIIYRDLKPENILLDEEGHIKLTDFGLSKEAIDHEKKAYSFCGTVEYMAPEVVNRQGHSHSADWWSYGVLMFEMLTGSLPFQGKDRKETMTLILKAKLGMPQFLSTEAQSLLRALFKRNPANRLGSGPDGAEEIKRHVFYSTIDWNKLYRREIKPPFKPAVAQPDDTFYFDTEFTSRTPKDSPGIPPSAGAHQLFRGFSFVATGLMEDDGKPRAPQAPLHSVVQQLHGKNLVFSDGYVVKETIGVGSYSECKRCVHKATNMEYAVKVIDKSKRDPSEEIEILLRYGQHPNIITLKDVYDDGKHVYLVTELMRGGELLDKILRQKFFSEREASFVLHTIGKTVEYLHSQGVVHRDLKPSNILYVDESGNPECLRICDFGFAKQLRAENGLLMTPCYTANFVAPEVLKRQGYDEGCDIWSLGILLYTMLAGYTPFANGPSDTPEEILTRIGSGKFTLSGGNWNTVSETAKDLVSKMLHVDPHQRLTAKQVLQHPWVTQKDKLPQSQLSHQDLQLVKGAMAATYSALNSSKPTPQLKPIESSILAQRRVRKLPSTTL
Chain of Serine/threonine-protein kinase PAK 2 (Homo sapiens) (Q13177 whole entry, the tested form may be a part): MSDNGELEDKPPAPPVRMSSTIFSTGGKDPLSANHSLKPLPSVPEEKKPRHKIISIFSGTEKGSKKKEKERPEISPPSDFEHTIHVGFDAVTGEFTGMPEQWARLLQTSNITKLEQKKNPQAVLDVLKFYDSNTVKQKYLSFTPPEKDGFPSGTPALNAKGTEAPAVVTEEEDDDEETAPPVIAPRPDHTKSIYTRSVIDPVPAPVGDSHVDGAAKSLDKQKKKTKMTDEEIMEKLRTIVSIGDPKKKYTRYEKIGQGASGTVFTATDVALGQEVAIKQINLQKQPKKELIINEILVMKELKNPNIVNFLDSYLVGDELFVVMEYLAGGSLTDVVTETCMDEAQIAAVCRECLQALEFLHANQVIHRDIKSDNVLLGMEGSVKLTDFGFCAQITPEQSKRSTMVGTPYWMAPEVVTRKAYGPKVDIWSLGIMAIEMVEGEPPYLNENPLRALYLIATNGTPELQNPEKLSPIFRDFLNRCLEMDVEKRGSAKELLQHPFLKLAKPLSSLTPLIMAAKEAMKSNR

Clc1ccc(C2(c3ccc(-c4ncnc5[nH]cnc45)cc3)CCNCC2)cc1
inhibition [1]: 11%
inhibition [2]: 38%
inhibition [3]: 3%

c1nc(N2CCOCC2)c2nc[nH]c2n1
inhibition [4]: 67.5%
inhibition [5]: 34%
inhibition [6]: 63%

NCC1CN(c2ncnc3[nH]c4cnccc4c23)CCO1 (stereo not drawn)
inhibition [7]: 48.5%
inhibition [8]: 95.5%
inhibition [9]: 36.5%

c1cnc2[nH]ccc2c1
inhibition [10]: 80.5%

NC1CCN(c2ncnc3[nH]ccc23)CC1
inhibition [11]: 27%
inhibition [12]: 0.5%

NCC1CCN(c2ncnc3[nH]ccc23)CC1
inhibition [13]: 1%
